settings: acidic group

Compound | pKa
O=C(Cc1ccccc1)c1cc[n+](Cc2ccc([N+](=O)[O-])cc2)cc1 | 8.68
O=C(O)[C@@H]1CSC[NH2+]1 | 1.58
Oc1ccc(Br)cc1Br | 7.77
CC(=O)c1ccc(NS(=O)(=O)c2ccccc2)cc1 | 6.94
C#CCO | 13.3
Cc1cc(C(F)(F)F)n[nH]1 | 12.3
CC(C)[C@@]12C[NH2+][C@@H](C(=O)O)[C@@H]1CC(=O)O2 | 2.45
CCCCCCCCCc1c(-c2ccccc2)nn(-c2ccccc2)c1O | 7.2
CCc1nsc(O)n1 | 6.89
Nc1ncnc2c1ncn2CCOCP(=O)([O-])O | 7
CCOC(=O)C(=NO)C(=O)OCC | 5.48
CCCCS(=O)O | 2.2
Cc1cc(O)c(C(C)C)cc1Cl | 9.98
CCO/C(C)=N/O | 11.4
CCCCCCCCCCCCCCC(=O)O | 5.01

Now from value to molecule:

pKa | Compound
10.2 | CC(C)(C)c1ccc2c(c1)C(=O)NC2=O
11.8 | C[n+]1c2ccccc2cc2ccc(N)cc21
13.5 | C[n+]1c(N)ccnc1[O-]
3.73 | O=C(O)CSCc1ccccc1
7.5 | CC(=O)CC(=S)Nc1ccccc1
9.8 | O=S(=O)([O-])c1ccc2c(/N=N/c3ccc4[nH]cnc4c3)c(O)c(S(=O)(=O)[O-])cc2c1
12.1 | Cc1cc(O)nn1-c1ccccc1
8 | Oc1c(I)cc(I)c2cccnc12
11.2 | c1cncc(-c2nc3ccccc3[nH]2)c1

same assay, conditions: basic group

Compound | pKa
CCN(CC)C/C(C)=N/[O-] | 11
O=C([O-])[C@@H](NCCN[C@@H](C(=O)[O-])c1ccccc1[O-])c1ccccc1[O-] | 11.9
C/C(CN(C)C)=N\[O-] | 10.9
OC1(c2ccco2)CN2CCC1CC2 (stereo unspecified) | 9.06
CN(C)Cc1ccc(O)c(O)c1O | 8.26
Cc1cc([O-])n(C2CCN(C)CC2)n1 | 9
[O-]c1nc([O-])c2[nH]nnc2n1 | 9.3
NNC(=O)c1ccc[nH+]c1 | 1.64
N#CCN1CCOCC1 | 2
N=C(N)Nc1nc(N)nc(NC(=N)N)n1 | 9.8
Cc1cc(C(F)(F)F)n[nH]1 | -0.5
CCCNc1ncnc2c1cnn2C | 4.25
CCN(O)CC | 5.62
CC(C)(C)/C(N)=N/O | 5.8
Nc1ncnc2c1ncn2CCOCP(=O)([O-])O | 4.18
CCNCCCC(=O)[O-] | 11
CCCCCCN | 10.7
Nc1ccc(Br)cc1 | 3.79
NCC(=O)NCCc1c[nH]cn1 | 8.04
C/N=C(/NC)N(C)C | 13.9
CCCCC[C@H](C)N | 10.8
Cc1ccc2nc(C)c3c(c2c1)OC(C)C3C (stereo unspecified) | 7.65
CN(C)Cc1c(C(C)(C)C)cccc1C(C)(C)C | 9.2
CC(C)C[C@H]([NH3+])C(=O)N[C@@H](Cc1c[nH]cn1)C(=O)[O-] | 6.69
FC(F)(F)c1cc(-c2ccccc2)nnc1NCCN1CCOCC1 | 6.75

The remaining lines, values ahead:

pKa | Compound
-9 | CN(C)c1cccc2cccc([NH+](C)C)c12
9.2 | N/N=C/c1ncnc2nc[nH]c12
5.47 | CCC(C)Nc1ccccc1 (stereo unspecified)
4.25 | CCOC(=O)Cc1ccccn1
3.78 | N#CCc1cccnc1
6.23 | CC(C)c1nc2ccccc2[nH]1
3.31 | [SH2+]c1cccc2ncccc12
6.71 | NCC[n+]1cc(Br)c2ccccc2c1
7.38 | C[n+]1c(N)ccnc1[O-]
4.1 | O=C([O-])Cc1nc2ccccc2[nH]1
-5.55 | c1c[nH+]ccn1
3.54 | Nc1ccc2c(c1)Cc1c(F)cccc1-2
4.42 | c1ccc(-c2ccccn2)nc1
-8.63 | NC(=S)C([NH3+])Cc1ccccc1 (stereo unspecified)
2.7 | NC(=[NH2+])Nc1nccc(-c2csc(N)n2)n1
7.29 | COc1ccccc1C(=N)c1ccccc1
2.7 | Oc1c(I)cc(I)c2cccnc12
4.53 | c1cncc(-c2nc3ccccc3[nH]2)c1
8 | CCOC(=O)c1cnc2ccc([N+](=O)[O-])cc2c1[O-]
7.99 | CNCC(=O)Nc1c(C)cccc1C
8.59 | [O-]c1ccncn1
8.11 | COc1ccccc1/N=C/N(C)C

— the pKa sets of Baltruschat and Czodrowski (2020)
